Data set [1] deals with p38 MAPK alpha (MAPK14) (Homo sapiens (Human), UniProt Q16539). Briefly: Enzyme inhibition assay (FRET, Z-LYTE), p38 MAPK alpha via MAPKAP-K2 activation. The data set is classed as biochemical. Conditions: read-out: Enzyme Profile: IC50 Values p38α. The protocol: The enzyme inhibitory activity of test compounds was determined by fluorescence resonance energy transfer (FRET) using synthetic peptides labelled with both donor and acceptor fluorophores (Z-LYTE, Invitrogen). Recombinant, phosphorylated p38 MAPK γ (MAPK12:Millipore) was diluted in HEPES buffer, mixed with compound at the desired final concentrations and incubated for 2 hr at RT. The FRET peptide (2 μM) and ATP (100 μM) were next added to the enzyme/compound mixture and incubated for 1 hr. Development reagent (protease) was added for 1 hr prior to detection in a fluorescence microplate reader. The site-specific protease only cleaves non-phosphorylated peptide and eliminates the FRET signal. Phosphorylation levels of each reaction were calculated using the ratio of coumarin emission (donor) over fluorescein emission (acceptor) with high ratios indicating high phosphorylation levels and low ratios indicating low phosphorylation levels.
For p38 MAPK alpha (MAPK14: Invitrogen), enzyme activity was evaluated indirectly by determining activation/phosphorylation of the down-stream molecule, MAPKAP-K2. The p38 MAPK a protein was mixed with compound for 2 hr at RT. […] Development reagent was then added and the mixture incubated for 1 hr before detection by fluorescence completed the assay protocol.
The enzyme inhibitory activity of compound was determined by fluorescence resonance energy transfer (FRET) using synthetic peptides labelled with both donor and acceptor fluorophores (Z′-LYTE, Invitrogen).

In data set [2] the target is p38 MAPK γ (MAPK12) (Homo sapiens (Human), UniProt P53778). Briefly: Enzyme inhibition assay (FRET, Z-LYTE), p38 MAPK gamma. The data set is classed as biochemical. Particulars: read-out: Enzyme Profile: IC50 Values p38γ. The gist of the method: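 Recombinant phosphorylated human p38γ preincubated with compound 2 hr at RT in HEPES buffer, then reacted 1 hr with 2 μM FRET peptide and 100 μM ATP. Protease development 1 hr; phosphorylation derived from coumarin/fluorescein emission ratio.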

The target of data set [3] is HCK enzyme (Homo sapiens (Human), UniProt P08631). The data set can be described thus: HCK enzyme inhibition assay (FRET, Z'-LYTE). Type of data set: biochemical. Conditions: read-out: Enzyme Profile: IC50 Values HCK.
For data set [4], the target named is cSrc enzyme (Homo sapiens (Human), UniProt P12931). The data set can be described thus: c-SRC enzyme inhibition assay (FRET, Z'-LYTE). Type of data set: biochemical. Conditions: read-out: Enzyme Profile: IC50 Values cSrc.
In data set [5] the test system is TNFα release in THP-1 cells. The data set can be described thus: LPS-induced TNFα release in THP-1 cells. Particulars: Homo sapiens; THP-1 cells, LPS 3 μg/mL, 4 hr; read-out: THP1 (LPS) TNFα IC50. Type of data set: cell-based. The method, then:
The inhibition of TNFα production was calculated at each concentration by comparison with vehicle control.

Data set [6] has as its system TNFα release in d-U937 cells. The data set can be described thus: LPS-induced TNFα release in d-U937 cells. The data set is classed as cell-based. Particulars: Homo sapiens, dU937, LPS 0.1 μg/mL, 4 hr, relative to 10 μg/mL BIRB796, read-out: d-U937 (LPS) TNFα REC50. An outline of the steps:
(§1)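 U937 cells made macrophage-like by 48–72 h with PMA (100 ng/mL), then stimulated with LPS (E. coli O111:B4) for 4 h. Supernatant TNFα and IL-8 measured by sandwich ELISA; inhibition versus vehicle control at each concentration, REC50 from concentration-response curve.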

Data set [7] deals with IL-8 release in d-U937 cells. Briefly: LPS-induced IL-8 release in d-U937 cells. Type of data set: cell-based. Particulars: Homo sapiens, dU937; d-U937 cells, LPS 0.1 μg/mL, 4 hr; read-out: d-U937 (LPS) IL-8 IC50. The gist of the method:
as §1

Data set [8] has as its system ICAM-1 expression in BEAS2B cells. The data set can be described thus: Poly I:C-induced ICAM-1 induction in BEAS2B cells. The data set is classed as cell-based. Conditions: Homo sapiens, BEAS-2B; BEAS2B cells, poly I:C 1 μg/mL, 18 hr; read-out: BEAS2B (polyIC) ICAM1 IC50. An outline of the steps: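 Human bronchial epithelial BEAS2B cells pre-incubated 2 hr with test compounds at final concentrations, then transfected with poly I:C (1 μg/mL) using Oligofectamine. Cell-surface ICAM-1 quantified by cell-based ELISA with HRP-conjugated anti-rabbit IgG secondary.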

The test system of data set [9] is HRV16. Briefly: Rhinovirus-titre assay. Type of data set: cell-based, human rhinovirus. Conditions: HRV16; for inhibition at 0.04 µg/mL: Human rhinovirus sp., cell not marked b, test compounds 0.04 μg/mL per method (footnote b, 0.2 μg/mL), read-out: HRV titre (inhibitory %): % inhibition observed vs. HRV16 infection control.
The test system of data set [10] is Differentiated U937 cells. The data set can be described thus: MTT assay: cell viability. The data set is classed as cell-based, human. Conditions: 1 μg/ml; for d-U937 MTT Assay 4 h: 5% FCS; for d-U937 MTT Assay 24 h: 10% FCS. An outline of the steps:
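Differentiated U937 cells pre-incubated with compound either 4 hr in 5% FCS or 24 h in 10% FCS, then 1 hr MTT. Formazan dissolved in DMSO, absorbance at 550 nm. Percentage viability loss relative to 0.5% DMSO vehicle; apparent increases appear as negative percentages.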
(Tetrazolium assays rely on reduction of a dye to a coloured formazan, in cell work by metabolically active cells.)

Broadly, the IC50 is the concentration that gives 50% inhibition. What is called inhibition is the drop in the measured response relative to a control, in per cent.

In the case of `CSc1ccc(-n2nc(C(C)(C)C)cc2NC(=O)Nc2ccc(Oc3ccnc4[nH]c(=O)cnc34)c3ccccc23)cc1` [Example 33, 1-(3-(tert-butyl)-1-(4-(methylthio)phenyl)-1H-pyrazol-5-yl)-3-(4-((3-oxo-3,4-dihydropyrido[2,3-b]pyrazin-8-yl)oxy)naphthalen-1-yl)urea], the IC50 in data set [1] turned out to be 5 nM; in data set [2], 74 nM; in [3], 4 nM; in data set [4] it was 7 nM; in [5], 13 nM; in data set [7], 9.4 nM. Also, the IC50 in data set [8] came out at 3.2 nM. Moreover, the EC50 in data set [6] is 8.2 nM. For the same compound, the inhibition at 0.04 µg/mL in [9] came out at 80%. For the same compound, the “d-U937 MTT Assay 4 h” value in [10] is “− (− and + indicate the result is below and above the no significant effect threshold, respectively (<30% inhibition at a concentration of 1 μg/ml))”. Also, the “d-U937 MTT Assay 24 h” value in [10] was “− (− and + indicate the result is below and above the no significant effect threshold, respectively (<30% inhibition at a concentration of 1 μg/ml))”.
Take `CC(C)(C)c1cc(NC(=O)Nc2ccc(Oc3ccnc4[nH]c(=O)cnc34)c3ccccc23)n(-c2ccc(Cl)cc2)n1` [Example 27, 1-(3-(tert-butyl)-1-(4-chlorophenyl)-1H-pyrazol-5-yl)-3-(4-((3-oxo-3,4-dihydropyrido[2,3-b]pyrazin-8-yl)oxy)naphthalen-1-yl)urea]: the IC50 amounted to 3 nM in data set [1]; 237 nM in data set [2]; 918 nM in [3]; 16 nM in [4]; 7.5 nM in [5]; 1.1 nM in data set [7]. For the same compound, the IC50 in data set [8] was found to be 2.2 nM. In addition, the EC50 in data set [6] stood at 1.6 nM. The inhibition at 0.04 µg/mL in data set [9] came out at 94%. Moreover, the “d-U937 MTT Assay 4 h” value in data set [10] is “− (− and + indicate the result is below and above the no significant effect threshold, respectively (<30% inhibition at a concentration of 1 μg/ml))”. In addition, in [10], the “d-U937 MTT Assay 24 h” value is “− (− and + indicate the result is below and above the no significant effect threshold, respectively (<30% inhibition at a concentration of 1 μg/ml))”.
Consider `COc1ccc(-n2nc(C(C)(C)C)cc2NC(=O)Nc2ccc(Oc3ccnc4[nH]c(=O)n(C)c34)c3ccccc23)cc1` [Example 10], for which the IC50 was 6 nM in data set [1]; 45 nM in data set [2]; 3 nM in [3]; 7 nM in data set [4]; 0.6 nM in [5]; 1 nM in data set [7]. Besides, the IC50 in data set [8] is 6 nM. For the same compound, the EC50 in [6] stood at 1.3 nM. In addition, the inhibition at 0.04 µg/mL in data set [9] is 91%. Besides, in data set [10], the “d-U937 MTT Assay 4 h” value is “− (− and + indicate the result is below and above the no significant effect threshold, respectively (<30% inhibition at a concentration of 1 μg/ml))”. Moreover, the “d-U937 MTT Assay 24 h” value in data set [10] is “− (− and + indicate the result is below and above the no significant effect threshold, respectively (<30% inhibition at a concentration of 1 μg/ml))”.
For the compound `Cc1nc2c(Oc3ccc(NC(=O)Nc4cc(C(C)(C)C)nn4-c4ccccc4)c4ccccc34)ccnc2[nH]c1=O` [Example 7, 1-(3-(tert-butyl)-1-phenyl-1H-pyrazol-5-yl)-3-(4-((2-methyl-3-oxo-3,4-dihydropyrido[2,3-b]pyrazin-8-yl)oxy)naphthalen-1-yl)urea], the IC50 in [1] is 3 nM; in data set [2], 100 nM; in data set [3] it was 3 nM; in data set [4] it was 7 nM; in data set [5], 7 nM; in data set [7] it was 4.2 nM. The IC50 in [8] was determined as 3 nM. In addition, the EC50 in data set [6] came to 1.7 nM. In data set [9], the inhibition at 0.04 µg/mL came out at 60%. The “d-U937 MTT Assay 4 h” value in [10] was “− (− and + indicate the result is below and above the no significant effect threshold, respectively (<30% inhibition at a concentration of 1 μg/ml))”. The “d-U937 MTT Assay 24 h” value in [10] was “− (− and + indicate the result is below and above the no significant effect threshold, respectively (<30% inhibition at a concentration of 1 μg/ml))”.
Turning to `Cc1ccc(-n2nc(C(C)(C)C)cc2NC(=O)Nc2ccc(Oc3ccnc4[nH]c(=O)c(C)nc34)c3ccccc23)cc1` [Example 8, 1-(3-(tert-butyl)-1-(p-tolyl)-1H-pyrazol-5-yl)-3-(4-((2-methyl-3-oxo-3,4-dihydropyrido[2,3-b]pyrazin-8-yl)oxy)naphthalen-1-yl)urea], the IC50 in [1] was 7 nM; in data set [2], 99 nM; in data set [3], 5 nM; in data set [4], 7 nM; in [5], 2.5 nM; in [7] it was 1.7 nM. In addition, in data set [8], the IC50 stood at 0.6 nM. In addition, in data set [6], the EC50 came to 0.3 nM. Also, the inhibition at 0.04 µg/mL in data set [9] worked out at 91%. In data set [10], the “d-U937 MTT Assay 4 h” value was “− (− and + indicate the result is below and above the no significant effect threshold, respectively (<30% inhibition at a concentration of 1 μg/ml))”. In addition, the “d-U937 MTT Assay 24 h” value in data set [10] is “− (− and + indicate the result is below and above the no significant effect threshold, respectively (<30% inhibition at a concentration of 1 μg/ml))”.
As for `CC(C)(C)c1cc(NC(=O)Nc2ccc(Oc3ccnc4[nH]c(=O)cnc34)c3ccccc23)n(-c2ccc(CO)cc2)n1` [Example 17, 1-(3-(tert-Butyl)-1-(4-(hydroxymethyl)phenyl)-1H-pyrazol-5-yl)-3-(4-((3-oxo-3,4-dihydropyrido[2,3-b]pyrazin-8-yl)oxy)naphthalen-1-yl)urea], the IC50 in data set [1] is 7 nM; in data set [2] it was 318 nM; in data set [3], 24 nM; in data set [4], 11 nM; in data set [5], 14 nM; in data set [7], 24 nM. For the same compound, the IC50 in data set [8] was 14 nM. Besides, the EC50 in data set [6] turned out to be 12 nM. The inhibition at 0.04 µg/mL in data set [9] was determined as 36%. Besides, the “d-U937 MTT Assay 4 h” value in [10] was “− (− and + indicate the result is below and above the no significant effect threshold, respectively (<30% inhibition at a concentration of 1 μg/ml))”. The “d-U937 MTT Assay 24 h” value in [10] is “− (− and + indicate the result is below and above the no significant effect threshold, respectively (<30% inhibition at a concentration of 1 μg/ml))”.
Regarding `CC(C)(C)c1cc(NC(=O)Nc2ccc(Oc3ccnc4[nH]c(=O)[nH]c34)c3ncccc23)n(-c2ccccc2)n1` [Example 4, 1-(3-tert-butyl-1-phenyl-1H-pyrazol-5-yl)-3-(8-(2-oxo-2,3-dihydro-1H-imidazo [4,5-b]pyridin-7-yloxy)quinolin-5-yl) urea], the IC50 in data set [1] is 18 nM; in data set [2] it was 214 nM; in [3] it was 7 nM; in data set [4] it was 0.9 nM; in [5] it was 185 nM; in [7], 378 nM. Moreover, in data set [8], the IC50 was 581 nM. The EC50 in data set [6] stood at 171 nM. In [9], the inhibition at 0.04 µg/mL stood at 60%. The “NBEC (HRV) HRV titre Relative anti-viral activity” value in data set [9] (at 0.04 μg/mL vs. pleconaril at 0.1 μg/mL) came out at 0.7. Besides, in [10], the “d-U937 MTT Assay 4 h” value was “− (− and + indicate the result is below and above the no significant effect threshold, respectively (<30% inhibition at a concentration of 1 μg/ml))”. Further, the “d-U937 MTT Assay 24 h” value in data set [10] is “− (− and + indicate the result is below and above the no significant effect threshold, respectively (<30% inhibition at a concentration of 1 μg/ml))”.

The record behind these values is patent US8933228B2, “Respiratory formulations and compounds for use therein” (Respivert, Ltd., priority 2010, dated 2015).
